Assay results taken from patent US4376780A, “Novel phenethylamine derivatives and bronchdilator containing the same” (Eisai Co., Ltd., priority 1976, dated 1983).
“Also recorded” adds a separate entry of the source. Structures can show the parent of a compound that is named as a salt. Where two headings read alike, the source gives them in different places.

Assays:
[1] = test system: heart beat numbers of the guinea pig; assay: Effect on the heart beat numbers, conscious guinea pigs; type: in vivo; conditions: for increasing action to the heart beat numbers of the guinea pig: calculation from the product of the intensity action with the durability
Experimental: Effect On The Heart Beat Numbers
(1) Conscious guinea pigs
The guinea pigs were used, in which electrodes of stainless steel were pierced and put in both forelegs of the respective guinea pigs under previous anesthesia (after 24 hours from this operation).
The guinea pigs were isolated one by one in observation boxes, recorded their electrocardiogram (the first induction) under quiet circumstances, and heart beat numbers were counted.
All compounds to be examined were administered orally. The recording and measuring were carried out three times before the administration and with the lapse of time until 180 minutes after the administration.
Calculation From The Product Of The Intensity Action With The Durability

[2] = test system: asthmatous fit caused by the histamine spray; assay: Protecting effect against the dyspnea (asthmatous fit) caused by histamine spray, guinea pigs, oral; type: in vivo, guinea pigs of Hartley strain; conditions: for ED50: Cavia porcellus, read-out: ED 50, protecting effect on the asthmatous fit caused by the histamine spray; for protecting effect relative to the two controls, salbutamol and isoproterenol / durability action of the protecting effect / Ratio to isoproterenol (protecting effect): guinea pigs; for durability action of the protecting effect: in words; for Ratio to isoproterenol (protecting effect): isoproterenol = 100
Experimental: Protecting Effect Against The Dyspnea Caused By The Histamine
Male guinea pigs of Hartley strain were used. Aqueous solutions of the compounds to be examined were prepared in various concentrations, and administered orally to the guinea pigs, in a dose of 10 ml/Kg, respectively. After the oral administration, the guinea pigs were taken in a dome. Histamine solution in a concentration of 0.1% was sprayed through a nebulizer at a blow rate of 3500 ml/min. Two symptoms of hypoxia and fit of caughing were used as indices, and a probable appearing time of said two symptoms was watched and observed for 20 minutes from the start of the spraying.
The protecting effect was judged to be effective with the appearing time more than the double of the mean appearing time in 33 examples of the groups wherein physiological saline water was administered.

[3] = Acute toxicity, mice, oral; conditions: mouse, in vivo, 7 days observation
Description: There was examined and observed the acute toxicity of the compounds to be examined for 7 days in the case of oral administration to mice.

[4] = test system: air way resistance increased by histamine; assay: Inhibitory effect on the increasing reaction of the air-way resistance of histamine (Konzett-Rossler), anesthetized dogs; type: in vivo
Experimental: Inhibitory Effect On The Increasing Reaction Of The Air-Way Resistance Of Histamine
(§1) Normally healthy dogs (body weights were 10-15 Kg) were used as subject animals, and anesthetized with sodium pentobarbital urethane. The compounds to be examined were injected into the femoral vein of the dog. The inhibitory effect on the increasing reaction of the histamine (10 μg/Kg were administered) to the air way resistance was determined by Konzett-Rossler method.

[5] = test system: heart beat numbers of the anesthetized dogs; assay: Effect on the heart beat numbers, anesthetized dogs; type: in vivo; conditions: intravenous
Experimental: as §1
Using anesthetized dogs as same as the pharmacological experiment 2, and injecting the compounds to be examined into the dogs from the femoral vein thereof, the increasing actions to the heart beat numbers were examined.

[6] = test system: blood pressure in the anesthetized dogs; assay: Effect on the blood pressure, anesthetized dogs; type: in vivo
Experimental: as §1
Effect On The Blood Pressure
Using the anesthetized dogs as same as pharmacological experiment 2, and injecting the compounds to be examined into the dogs from the femoral vein, the effect on the blood pressure was examined.

[7] = oral, male Hartley guinea pigs, 0.1% histamine spray

Structure (SMILES) | increasing action to the heart beat numbers of the guinea pig ([1]; 0.3 mg/Kg oral) | increasing action to the heart beat numbers of the guinea pig ([1]; 3 mg/Kg oral) | increasing action to the heart beat numbers of the guinea pig ([1]; 30 mg/Kg oral) | increasing action to the heart beat numbers, in words ([1]; oral, conscious guinea pigs, fumarate) | ED50 ([2]; po) | protecting effect relative to the two controls, salbutamol and isoproterenol ([2]; oral) | durability action of the protecting effect ([2]; oral) | Ratio to isoproterenol (protecting effect) ([2]; oral) | LD50 at 168 h [3] | inhibition at 0.003 mg/kg ([4]; Canis lupus familiaris, iv, read-out: inhibitory effect on the increasing reaction of the histamine to the air way resistance) | inhibitory effect on air way resistance, comparison and durability in words ([4]; intravenous, anesthetized dogs, fumarate) | dosage showing increasing action to the heart beat numbers [5] | increasing action to the heart beat numbers, comparison in words [5] | dosage showing remarkable depression effect upon the blood pressure ([6]; intravenous, anesthetized dogs) | ED50 [2, 7] | inhibition at 0.03 mg/kg ([4]; Canis lupus familiaris, 10 min, 30 μg/Kg, intravenous, after 10 minutes, read-out: inhibitory effect on air way resistance 10 minutes after the administration) | minimal effective dose ([4]; Canis lupus familiaris, intravenous, immediately after administration, read-out: dose with distinct inhibitory effect on air way resistance immediately after the administration) | depression effect on the blood pressure, in words ([6]; dog, in vivo, iv) | durability effect on the blood pressure, in words ([6]; dog, in vivo, iv)
COCc1cc(C(O)CNC(C)Cc2ccc(OC)cc2)ccc1O.O=C(O)/C=C/C(=O)O (stereo not drawn) [Compound A, 1-(4-hydroxy-3-methoxymethylphenyl)-2-(α-methyl-4-methoxyphenethylamino)ethanol fumarate] | 36.8 | 75.0 | 93.7 | distinct increasing action to the heart beat numbers with the dosage of 0.3 mg/Kg; also recorded: relatively same as that of Salbutamol and weaker than that of Isoproterenol | 0.39 mg/kg | 5-7 times | extended obviously longer than those of the two controls | 744 | 1050 mg/kg | > 50% | almost same as those of salbutamol | more than 3 μg/Kg | weaker than that of Isoproterenol, and rather more intense than that of Salbutamol | more than 3 μg/Kg |  |  |  |  | 
CC(C)NCC(O)c1ccc(O)c(O)c1 [Isoproterenol, L-isoproterenol hydrochloride, reference compound] | 87.3 | 86.9 | 147.0 |  |  |  |  |  |  |  |  |  |  |  | 2.9 mg/kg | 10% | ~0.001 mg/kg | more intense depression effect than that of the compound A of this invention | relatively short in durability effect
CC(C)(C)NCC(O)c1ccc(O)c(CO)c1.Cl (stereo not shown) [Salbutamol, 1-(4-hydroxy-3-hydroxymethylphenyl)-2-(t-butylamino)-ethanol hydrochloride, reference compound] |  |  |  |  |  |  |  |  |  |  |  |  |  |  | 2.25 mg/kg |  |  | rather weaker tendency | 
COCc1cc(C(O)CNC(C)Cc2ccc3c(c2)OCO3)ccc1O (stereo not drawn) [Compound B, 1-(4-hydroxy-3-methoxymethylphenyl)-2-(α-methyl-3,4-methylenedioxyphenethylamine)ethanol oxalate] |  |  |  |  |  | 5-7 times | extended obviously longer than those of the two controls | 518 | 1200 mg/kg |  |  |  |  |  | 0.56 mg/kg |  |  |  | 
COCc1cc(C(O)CNC(C)Cc2ccc(O)cc2)ccc1O.O=C(O)C(=O)O (stereo not drawn) [Compound C, 1-(4-hydroxy-3-methoxymethylphenyl)-2-(α-methyl-4-hydroxyphenethylamino)ethanol oxalate] |  |  |  |  | 0.36 mg/kg | 5-7 times | extended obviously longer than those of the two controls | 806 | 1200 mg/kg |  |  |  |  |  |  |  |  |  | 
